# Columns and labels:
# Assay type in all cases: in vivo
# [1] = system: Surinam grass (Brachiaria decumbens); test: Test B postemergence; details: 13 to 15 days
# Method in brief: (§1)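 Post-treatment, species sat 13–15 days under greenhouse conditions before visual scoring against controls, 0 (no effect) through 100 (complete control). Application preemergence to sown seeds or postemergence at 1- to 4-leaf stage, using a non-phytotoxic solvent/surfactant formulation.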
# [2] = system: barnyardgrass (Echinochloa crus-galli); test: Test B postemergence; details: 13 to 15 days
# Method in brief: as §1
# [3] = system: blackgrass (Alopecurus myosuroides); test: Test B postemergence; details: 13 to 15 days
# Method in brief: as §1
# [4] = system: cocklebur (Xanthium strumarium); test: Test B postemergence; details: 13 to 15 days
# Method in brief: as §1
# corn (Zea mays) [5] = test: Test B postemergence; details: 13 to 15 days
# Method in brief: as §1
# [6] = system: crabgrass (Digitaria sanguinalis); test: Test B postemergence; details: 13 to 15 days
# Method in brief: as §1
# [7] = system: giant foxtail (Setaria faberii); test: Test B postemergence; details: 13 to 15 days
# Method in brief: as §1
# [8] = system: lambsquarters (Chenopodium album); test: Test B postemergence; details: 13 to 15 days
# Method in brief: as §1
# [9] = system: morning glory (Ipomoea hederacea); test: Test B postemergence; details: 13 to 15 days
# Method in brief: as §1
# [10] = system: pigweed (Amaranthus retroflexus); test: Test B postemergence; details: 13 to 15 days
# Method in brief: as §1
# [11] = system: velvetleaf (Abutilon theophrasti); test: Test B postemergence; details: 13 to 15 days
# Method in brief: as §1
# [12] = system: wheat (Triticum aestivum); test: Test B postemergence; details: 13 to 15 days
# Method in brief: as §1
# wild oat (Avena fatua) = test: Test B postemergence; details: 13 to 15 days
# Method in brief: as §1
# [13] = system: Surinam grass (Brachiaria decumbens); test: Test B preemergence
# Method in brief: as §1
# [14] = system: barnyardgrass (Echinochloa crus-galli); test: Test B preemergence
# Method in brief: as §1
# [15] = system: cocklebur (Xanthium strumarium); test: Test B preemergence
# Method in brief: as §1
# corn (Zea mays) [16] = test: Test B preemergence
# Method in brief: as §1
# [17] = system: crabgrass (Digitaria sanguinalis); test: Test B preemergence
# Method in brief: as §1
# [18] = system: giant foxtail (Setaria faberii); test: Test B preemergence
# Method in brief: as §1
# [19] = system: lambsquarters (Chenopodium album); test: Test B preemergence
# Method in brief: as §1
# [20] = system: morning glory (Ipomoea hederacea); test: Test B preemergence
# Method in brief: as §1
# [21] = system: pigweed (Amaranthus retroflexus); test: Test B preemergence
# Method in brief: as §1
# rice (Oryza saliva) [22] = test: Test B preemergence
# Method in brief: as §1
# [23] = system: velvetleaf (Abutilon theophrasti); test: Test B preemergence
# Method in brief: as §1
# [24] = system: barnyardgrass (Echinochloa crus-galli); test: Test B flooded paddy test; details: Rate 1000 g/ha, scale of 0 to 100 where 0 is no effect and 100 is complete control, visually evaluated after 13 to 15 days
# Protocol: (§2) At the same time, plants selected from these crop and weed species and also blackgrass (Alopecurus myosuroides), wheat (Triticum aestivum) and wild oat (Avena fatua) were treated with postemergence applications of test chemicals formulated in the same manner. Plants ranged in height from 2 to 18 cm (1- to 4-leaf stage) for postemergence treatments. Plant species in the flooded paddy test consisted of rice (Oryza saliva), smallflower flatsedge (Cyperus difformis), duck salad (Heteranthera limosa) and barnyardgrass (Echinochloa crus-galli) grown to the 2-leaf stage for testing. Treated plants and controls were maintained in a greenhouse for 13 to 15 days, after which time all species were compared to controls and visually evaluated. Plant response ratings, summarized in Table B, are based on a scale of 0 to 100 where 0 is no effect and 100 is complete control. A dash (-) response means no test result.
# [25] = system: duck salad (Heteranthera limosa); test: Test B flooded paddy test; details: Rate 1000 g/ha, scale of 0 to 100 where 0 is no effect and 100 is complete control, visually evaluated after 13 to 15 days
# Protocol: as §2
# rice (Oryza saliva) [26] = test: Test B flooded paddy test; details: Rate 1000 g/ha, scale of 0 to 100 where 0 is no effect and 100 is complete control, visually evaluated after 13 to 15 days
# Protocol: as §2
# [27] = system: smallflower flatsedge (Cyperus difformis); test: Test B flooded paddy test; details: Rate 1000 g/ha, scale of 0 to 100 where 0 is no effect and 100 is complete control, visually evaluated after 13 to 15 days
# Protocol: as §2
# [28] = Rate 125 g/ha, scale 0 (no effect) to 100 (complete control)
# [29] = Rate 500 g/ha, scale 0 to 100, 0 is no effect, 100 is complete control
# [30] = Preemergence, Rate 500 g/ha, scale 0 to 100, 0 no effect, 100 complete control
# [31] = preemergence, Rate 125 g/ha, scale of 0 to 100 where 0 is no effect and 100 is complete control, 13 to 15 days
# [32] = preemergence, Rate 125 g/ha, scale 0 to 100, 0 no effect, 100 complete control
smiles,measurement,setting,value
Cc1ccc(N2CCC(n3ccc(C(C)(C)C)n3)C2=O)cc1C(F)(F)F (stereo not drawn) [Compound 47],"Plant response rating, Surinam grass",[1]; [28],0
same,"Plant response rating, Surinam grass",[1]; [29],0
same,"Plant response rating, Barnyardgrass",[2]; [28],0
same,"Plant response rating, Barnyardgrass",[2]; [29],0
same,"Plant response rating, Blackgrass",[3]; [28],0
same,"Plant response rating, Blackgrass",[3]; [29],0
same,"Plant response rating, Cocklebur",[4]; [28],0
same,"Plant response rating, Cocklebur",[4]; [29],0
same,"Plant response rating, Corn",corn (Zea mays) [5]; [28],0
same,"Plant response rating, Corn",corn (Zea mays) [5]; [29],0
same,"Plant response rating, Crabgrass",[6]; [28],0
same,"Plant response rating, Crabgrass",[6]; [29],0
same,"Plant response rating, Foxtail, Giant",[7]; [28],0
same,"Plant response rating, Foxtail, Giant",[7]; [29],0
same,"Plant response rating, Lambsquarters",[8]; [28],70
same,"Plant response rating, Lambsquarters",[8]; [29],90
same,"Plant response rating, Morningglory",[9]; [28],0
same,"Plant response rating, Morningglory",[9]; [29],0
same,"Plant response rating, Pigweed",[10]; [28],50
same,"Plant response rating, Pigweed",[10]; [29],50
same,"Plant response rating, Velvetleaf",[11]; [28],0
same,"Plant response rating, Velvetleaf",[11]; [29],0
same,"Plant response rating, Wheat",[12]; [28],0
same,"Plant response rating, Wheat",[12]; [29],0
same,"Plant response rating, Wild Oat",wild oat (Avena fatua); [28],0
same,"Plant response rating, Wild Oat",wild oat (Avena fatua); [29],0
same,"Plant response rating, Surinam grass",[13]; [30],0
same,"Plant response rating, Surinam grass",[13]; [31],0
same,"Plant response rating, Barnyardgrass",[14]; [30],0
same,"Plant response rating, Barnyardgrass",[14]; [31],0
same,"Plant response rating, Cocklebur",[15]; [30],0
same,"Plant response rating, Cocklebur",[15]; [31],0
same,"Plant response rating, Corn",corn (Zea mays) [16]; [30],0
same,"Plant response rating, Corn",corn (Zea mays) [16]; [31],0
same,"Plant response rating, Crabgrass",[17]; [30],0
same,"Plant response rating, Crabgrass",[17]; [31],0
same,"Plant response rating, Foxtail, Giant",[18]; [30],0
same,"Plant response rating, Foxtail, Giant",[18]; [31],0
same,"Plant response rating, Lambsquarters",[19]; [30],100
same,"Plant response rating, Lambsquarters",[19]; [31],0
same,"Plant response rating, Morningglory",[20]; [30],0
same,"Plant response rating, Morningglory",[20]; [31],0
same,"Plant response rating, Pigweed",[21]; [30],100
same,"Plant response rating, Pigweed",[21]; [31],100
same,"Plant response rating, Rice",rice (Oryza saliva) [22]; [30],20
same,"Plant response rating, Rice",rice (Oryza saliva) [22]; [31],0
same,"Plant response rating, Velvetleaf",[23]; [30],0
same,"Plant response rating, Velvetleaf",[23]; [31],0
same,"Plant response rating, Barnyardgrass",[24],70
same,"Plant response rating, Ducksalad",[25],20
same,"Plant response rating, Rice",rice (Oryza saliva) [26],70
same,"Plant response rating, Flatsedge",[27],100
COc1ccn(C2CCN(c3cccc(C(F)(F)F)c3)C2=O)n1 (stereo not drawn) [Compound 60],"Plant response rating, Surinam grass",[1]; [28],0
same,"Plant response rating, Surinam grass",[1]; [29],0
same,"Plant response rating, Barnyardgrass",[2]; [28],0
same,"Plant response rating, Barnyardgrass",[2]; [29],0
same,"Plant response rating, Blackgrass",[3]; [28],0
same,"Plant response rating, Blackgrass",[3]; [29],0
same,"Plant response rating, Cocklebur",[4]; [28],0
same,"Plant response rating, Cocklebur",[4]; [29],0
same,"Plant response rating, Corn",corn (Zea mays) [5]; [28],0
same,"Plant response rating, Corn",corn (Zea mays) [5]; [29],0
same,"Plant response rating, Crabgrass",[6]; [28],0
same,"Plant response rating, Crabgrass",[6]; [29],0
same,"Plant response rating, Foxtail, Giant",[7]; [28],0
same,"Plant response rating, Foxtail, Giant",[7]; [29],0
same,"Plant response rating, Lambsquarters",[8]; [28],0
same,"Plant response rating, Lambsquarters",[8]; [29],0
same,"Plant response rating, Morningglory",[9]; [28],0
same,"Plant response rating, Morningglory",[9]; [29],0
same,"Plant response rating, Pigweed",[10]; [28],0
same,"Plant response rating, Pigweed",[10]; [29],0
same,"Plant response rating, Velvetleaf",[11]; [28],0
same,"Plant response rating, Velvetleaf",[11]; [29],0
same,"Plant response rating, Wheat",[12]; [28],0
same,"Plant response rating, Wheat",[12]; [29],0
same,"Plant response rating, Wild Oat",wild oat (Avena fatua); [28],0
same,"Plant response rating, Wild Oat",wild oat (Avena fatua); [29],0
same,"Plant response rating, Surinam grass",[13]; [30],0
same,"Plant response rating, Surinam grass",[13]; [31],0
same,"Plant response rating, Barnyardgrass",[14]; [30],0
same,"Plant response rating, Barnyardgrass",[14]; [31],0
same,"Plant response rating, Cocklebur",[15]; [30],0
same,"Plant response rating, Cocklebur",[15]; [31],0
same,"Plant response rating, Corn",corn (Zea mays) [16]; [30],0
same,"Plant response rating, Corn",corn (Zea mays) [16]; [31],0
same,"Plant response rating, Crabgrass",[17]; [30],0
same,"Plant response rating, Foxtail, Giant",[18]; [30],0
same,"Plant response rating, Foxtail, Giant",[18]; [31],0
same,"Plant response rating, Lambsquarters",[19]; [30],0
same,"Plant response rating, Lambsquarters",[19]; [31],0
same,"Plant response rating, Morningglory",[20]; [30],0
same,"Plant response rating, Morningglory",[20]; [31],0
same,"Plant response rating, Pigweed",[21]; [30],100
same,"Plant response rating, Pigweed",[21]; [31],0
same,"Plant response rating, Rice",rice (Oryza saliva) [22]; [30],0
same,"Plant response rating, Rice",rice (Oryza saliva) [22]; [31],0
same,"Plant response rating, Velvetleaf",[23]; [30],0
same,"Plant response rating, Velvetleaf",[23]; [31],0
same,"Plant response rating, Barnyardgrass",[24],0
same,"Plant response rating, Ducksalad",[25],50
same,"Plant response rating, Rice",rice (Oryza saliva) [26],0
same,"Plant response rating, Flatsedge",[27],0
Cc1ccc(N2CCC(n3ccc(C(C)(C)C)n3)C2=O)cc1Cl (stereo not drawn) [Compound 41],"Plant response rating, Surinam grass",[1]; [28],0
same,"Plant response rating, Surinam grass",[1]; [29],0
same,"Plant response rating, Barnyardgrass",[2]; [28],0
same,"Plant response rating, Barnyardgrass",[2]; [29],70
same,"Plant response rating, Blackgrass",[3]; [28],0
same,"Plant response rating, Blackgrass",[3]; [29],0
same,"Plant response rating, Cocklebur",[4]; [28],0
same,"Plant response rating, Cocklebur",[4]; [29],0
same,"Plant response rating, Corn",corn (Zea mays) [5]; [29],0
same,"Plant response rating, Crabgrass",[6]; [28],0
same,"Plant response rating, Crabgrass",[6]; [29],40
same,"Plant response rating, Foxtail, Giant",[7]; [28],0
same,"Plant response rating, Foxtail, Giant",[7]; [29],0
same,"Plant response rating, Lambsquarters",[8]; [28],0
same,"Plant response rating, Lambsquarters",[8]; [29],60
same,"Plant response rating, Morningglory",[9]; [28],0
same,"Plant response rating, Morningglory",[9]; [29],20
same,"Plant response rating, Pigweed",[10]; [28],0
same,"Plant response rating, Pigweed",[10]; [29],80
same,"Plant response rating, Velvetleaf",[11]; [28],0
same,"Plant response rating, Velvetleaf",[11]; [29],0
same,"Plant response rating, Wheat",[12]; [28],0
same,"Plant response rating, Wheat",[12]; [29],0
same,"Plant response rating, Wild Oat",wild oat (Avena fatua); [28],0
same,"Plant response rating, Wild Oat",wild oat (Avena fatua); [29],0
same,"Plant response rating, Surinam grass",[13]; [30],0
same,"Plant response rating, Surinam grass",[13]; [32],0
same,"Plant response rating, Barnyardgrass",[14]; [30],100
same,"Plant response rating, Barnyardgrass",[14]; [32],40
same,"Plant response rating, Cocklebur",[15]; [30],0
same,"Plant response rating, Cocklebur",[15]; [32],0
same,"Plant response rating, Corn",corn (Zea mays) [16]; [30],0
same,"Plant response rating, Corn",corn (Zea mays) [16]; [32],0
same,"Plant response rating, Crabgrass",[17]; [30],0
same,"Plant response rating, Crabgrass",[17]; [32],0
same,"Plant response rating, Foxtail, Giant",[18]; [30],60
same,"Plant response rating, Foxtail, Giant",[18]; [32],0
same,"Plant response rating, Lambsquarters",[19]; [30],100
same,"Plant response rating, Lambsquarters",[19]; [32],100
same,"Plant response rating, Morningglory",[20]; [30],0
same,"Plant response rating, Pigweed",[21]; [30],100
same,"Plant response rating, Rice",rice (Oryza saliva) [22]; [30],0
same,"Plant response rating, Velvetleaf",[23]; [30],0
same,"Plant response rating, Barnyardgrass",[24],70
same,"Plant response rating, Ducksalad",[25],70
same,"Plant response rating, Rice",rice (Oryza saliva) [26],40
same,"Plant response rating, Flatsedge",[27],100
